This passage reports pest or weed control, inhibition of growth and melting point results from patent US10798941B2, “Microbiocidal oxadiazole derivatives” (SYNGENTA PARTICIPATIONS AG, priority 2016, dated 2020).

In data set [1] the test system is Puccinia recondita f. Sp. Tritici. Nature of the data set: Puccinia recondita f. sp. tritici / wheat / leaf disc preventative (brown rust). The class given is in vivo. The conditions noted are these: foliar, 168 h, 200 ppm in the applied formulation, wheat leaf segments cv. Kanzler, preventative, inoculated 1 day after application, assessed 7 to 9 days after application, vs untreated, read-out: disease control. The method in brief:
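Wheat cv. Kanzler leaf segments on agar were sprayed with formulated compound in water, then inoculated with spores 1 day later. Incubated at 19° C, 75% rh, 12 h light/12 h dark; percent disease control versus untreated scored 7 to 9 days after application.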

The test system is the same in data set [2]. Nature of the data set: Puccinia recondita f. sp. tritici / wheat / leaf disc curative (brown rust). As to conditions: foliar, 144 h, 200 ppm in the applied formulation, wheat leaf segments cv. Kanzler, applied 1 day after inoculation, assessed 6 to 8 days after application, vs untreated, read-out: disease control. The class given is in vivo. In outline:
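Read-out is percent disease control relative to untreated segments, assessed 6 to 8 days after treatment once check disease is adequate. Kanzler wheat leaf segments on agar receive fungal spores, then test compound (DMSO stock diluted in 0.025% Tween20 or water) 1 day later, under 19° C and 75% relative humidity.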

A further data set concerns Phakopsora pachyrhizi. Nature of the data set: Phakopsora pachyrhizi / soybean / leaf disc preventative (Asian soybean rust). The class given is in vivo. The conditions noted are these: foliar, 288 h, 200 ppm in the applied formulation, soybean leaf disks, inoculated one day after application, assessed 12 to 14 days after application, vs untreated, read-out: disease control. The method in brief:
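Read-out is percent disease control relative to untreated check discs, assessed once untreated discs show adequate disease, 12 to 14 days after application. Compounds, tested at 200 ppm in the applied formulation, are sprayed onto soybean leaf discs one day before inoculation with a spore suspension.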

The subject of data set [3] is Glomerella Lagenarium (Colletotrichum Lagenarium). Briefly: Glomerella lagenarium (Colletotrichum lagenarium) liquid culture / cucumber / preventative (anthracnose). The class given is cell-based. As to conditions: Colletotrichum orbiculare; 20 ppm in the applied formulation; liquid culture in PDB, 24° C., inhibition of growth measured photometrically 3 to 4 days after application, vs untreated; read-out: disease control. In outline:
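Conidia from cryogenic storage were mixed into potato dextrose broth. This was added to compound diluted from DMSO into 0.025% Tween20, tested at 20 ppm. Plates were incubated in the dark at 24 °C and 96% relative humidity, and growth was read photometrically after 2–7 days as % activity versus untreated check.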

A further data set concerns Uromyces viciae-Fabae. Briefly: Uromyces viciae-fabae / field bean / leaf disc preventative (faba-bean rust). The data set is classed as in vivo. The conditions noted are these: foliar, 288 h, 100 ppm in the applied formulation, field bean leaf discs, inoculated two hours after application, assessed 12 days after application, vs untreated, read-out: disease control. The protocol: Leaf disks or leaf segments of various plant species are cut from plants grown in a greenhouse. The cut leaf disks or segments are placed in multiwell plates (24-well format) onto water agar. The leaf disks are sprayed with a test solution before (preventative) or after (curative) inoculation. Compounds to be tested are prepared as DMSO solutions (max. 10 mg/ml) which are diluted to the appropriate concentration with 0.025% Tween20 just before spraying. The inoculated leaf disks or segments are incubated under defined conditions (temperature, relative humidity, light, etc.) according to the respective test system. A single evaluation of disease level is carried out 3 to 14 days after inoculation, depending on the pathosystem. Percent disease control relative to the untreated check leaf disks or segments is then calculated.
Field bean leaf discs are placed on water agar in multiwell plates (96-well format) and 10 μl of the formulated test compound diluted in acetone and a spreader pipetted onto the leaf disc. Two hours after application leaf discs are inoculated by spraying a spore suspension on the lower leaf surface. The leaf discs are incubated in a climate cabinet at 22° C. with 18 hour day and 70% relative humidity. The activity of a compound is assessed as percent disease control compared to untreated when an appropriate level of disease damage appears in untreated check leaf disks (12 days after application).
The following compounds at 100 ppm in the applied formulation give at least 80% disease control in this test when compared to untreated control leaf discs under the same conditions, which show extensive disease development.

As to `CC(C)(C)OC(=O)NCc1cn(Cc2ccc(-c3noc(C(F)(F)F)n3)cc2)nn1` [Compound 1.9, tert-butyl N-[[1-[[4-[5-(trifluoromethyl)-1,2,4-oxadiazol-3-yl]phenyl]methyl]triazol-4-yl]methyl]carbamate], the melting point lay in the range of 134.7 to 136.9 °C. Moreover, in data set [1], the pest or weed control at 200 ppm was at least 80%. In addition, the pest or weed control at 200 ppm in data set [2] was at least 80%. For the same compound, the pest or weed control at 200 ppm in the data set on Phakopsora pachyrhizi was at least 80%. Further, the inhibition of growth at 20 ppm in data set [3] is at least 80%. For the same compound, the pest or weed control at 100 ppm in the data set with Uromyces viciae-Fabae was at least 80%.

`Cc1cc(C)n(Cc2ccc(-c3noc(C(F)(F)F)n3)cc2)n1` [Compound 1.15, 3-[4-[(3,5-dimethylpyrazol-1-yl)methyl]phenyl]-5-(trifluoromethyl)-1,2,4-oxadiazole] displayed a melting point of 53 to 58 °C. In data set [1], the pest or weed control at 200 ppm was at least 80%. In data set [2], the pest or weed control at 200 ppm is at least 80%. The pest or weed control at 200 ppm with Phakopsora pachyrhizi is at least 80%. Moreover, in data set [3], the inhibition of growth at 20 ppm is at least 80%. The pest or weed control at 100 ppm with Uromyces viciae-Fabae is at least 80%.

For the compound `FC(F)(F)c1nc(-c2ccc(Cn3cccn3)cc2)no1` [Compound 1.16, 3-[4-(pyrazol-1-ylmethyl)phenyl]-5-(trifluoromethyl)-1,2,4-oxadiazole], the melting point was in the range of 36 to 41 °C. In addition, the pest or weed control at 200 ppm in data set [1] is at least 80%. Besides, the pest or weed control at 200 ppm in data set [2] is at least 80%. In addition, the pest or weed control at 200 ppm in the data set with Phakopsora pachyrhizi was at least 80%. Further, the inhibition of growth at 20 ppm in data set [3] was at least 80%. The pest or weed control at 100 ppm in the data set on Uromyces viciae-Fabae was at least 80%.

Take `FC(F)(F)c1nc(-c2ccc(Cn3ccnc3)cc2)no1` [Compound 1.18, 3-[4-(imidazol-1-ylmethyl)phenyl]-5-(trifluoromethyl)-1,2,4-oxadiazole]: the melting point is 45 to 55 °C. The pest or weed control at 200 ppm in data set [1] was at least 80%. Further, the pest or weed control at 200 ppm in data set [2] was at least 80%. Besides, the pest or weed control at 200 ppm with Phakopsora pachyrhizi was at least 80%. The inhibition of growth at 20 ppm in data set [3] was at least 80%. Moreover, the pest or weed control at 100 ppm in the data set with Uromyces viciae-Fabae is at least 80%.

Consider `FC(F)(F)c1nc(-c2ccc(Cn3cncn3)cc2)no1` [Compound 1.19, 3-[4-(1,2,4-triazol-1-ylmethyl)phenyl]-5-(trifluoromethyl)-1,2,4-oxadiazole], for which the melting point is 72 to 77 °C. The pest or weed control at 200 ppm in data set [1] is at least 80%. The pest or weed control at 200 ppm in data set [2] is at least 80%. In addition, the pest or weed control at 200 ppm with Phakopsora pachyrhizi is at least 80%. In data set [3], the inhibition of growth at 20 ppm is at least 80%. The pest or weed control at 100 ppm with Uromyces viciae-Fabae was at least 80%.
